Measurements: ChEMBL document CHEMBL1201862, “PubChem BioAssay data set” (2004)
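Step 1: Grow cells in 96-well plates. Step 2: Expose to compound for 48 hours at 5 concentrations. Step 3: Interpolate endpoints linearly; if unreached, use highest concentration. The concentration for 50% growth inhibition is given as GI50.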 The source made the active and inactive calls. Cut-off read from the data, not from the text of the source: active = GI50 up to about 1.1 µM and inactive = higher.

Experiments:
Experiment in all cases: NCI-60 cell line screen, 48 h
[1] = test system: SF-295
[2] = test system: HCT-15
[3] = test system: SK-MEL-5
[4] = test system: Malme-3M
[5] = test system: UACC-257
[6] = test system: MCF7
[7] = test system: MOLT-4
[8] = test system: SN12C
[9] = test system: OVCAR-3
[10] = test system: HOP-62
[11] = test system: K562
[12] = test system: CCRF-CEM
[13] = test system: TK-10
[14] = test system: COLO 205
[15] = test system: A498
[16] = test system: NCI-H522
[17] = test system: NCI/ADR-RES
[18] = test system: MDA-N
[19] = test system: HCC 2998

Compound | GI50 [1] | GI50 [2] [µM] | GI50 [3] | GI50 [4] | GI50 [5] | GI50 [6] | GI50 [7] | GI50 [8] | GI50 [9] | GI50 [10] | GI50 [11] | GI50 [12] | GI50 [13] | GI50 [14] | GI50 [15] | GI50 [16] | GI50 [17] | GI50 [18] | GI50 [19]
O=C(O)CS(=O)(=O)C(c1ccccc1)c1ccccc1 | > 100 µM (inactive) | > 100 | > 100 µM (inactive) | > 100 µM (inactive) | > 100 µM (inactive) | > 100 µM (inactive) | > 100 µM (inactive) | > 100 µM (inactive) | > 100 µM (inactive) | > 100 µM (inactive) | > 100 µM (inactive) | > 100 µM (inactive) | > 100 µM (inactive) | > 100 µM (inactive) | > 100 µM (inactive) | > 100 µM (inactive) | > 100 µM (inactive) | > 100 µM (inactive) | 
Nc1nn2c(=O)c3ccccc3nc2s1 | > 100 µM (inactive) | 44.9 | 56 µM (inactive) |  | > 100 µM (inactive) | 50.1 µM (inactive) | 23.3 µM (inactive) | 65.6 µM (inactive) | > 100 µM (inactive) | > 100 µM (inactive) | 28.4 µM (inactive) | 18.2 µM (inactive) | > 100 µM (inactive) | 35.4 µM (inactive) | > 100 µM (inactive) | 17.5 µM (inactive) | > 100 µM (inactive) | 38.3 µM (inactive) | > 100 µM (inactive)
OC1OC(c2ccc[nH]2)C(F)(F)C(F)(F)C1(F)F (centres undefined) | > 100 µM (inactive) | > 100 | 63.4 µM (inactive) | > 100 µM (inactive) | > 100 µM (inactive) | > 100 µM (inactive) | > 100 µM (inactive) | > 100 µM (inactive) | > 100 µM (inactive) | > 100 µM (inactive) |  | 73.6 µM (inactive) | > 100 µM (inactive) | 26.7 µM (inactive) | > 100 µM (inactive) | > 100 µM (inactive) | > 100 µM (inactive) | > 100 µM (inactive) | 
NC(CSc1nc2ccccn2c1[N+](=O)[O-])C(=O)O (centres undefined) | > 100 µM (inactive) | > 100 | > 100 µM (inactive) | > 100 µM (inactive) | > 100 µM (inactive) | > 100 µM (inactive) |  | > 100 µM (inactive) | > 100 µM (inactive) | > 100 µM (inactive) | > 100 µM (inactive) |  | > 100 µM (inactive) | > 100 µM (inactive) | > 100 µM (inactive) | > 100 µM (inactive) | > 100 µM (inactive) | > 100 µM (inactive) | > 100 µM (inactive)
CN(C)CCNS(=O)(=O)N(C)C | > 100 µM (inactive) | > 100 | > 100 µM (inactive) | > 100 µM (inactive) | > 100 µM (inactive) | > 100 µM (inactive) | > 100 µM (inactive) | > 100 µM (inactive) | > 100 µM (inactive) | > 100 µM (inactive) | > 100 µM (inactive) | > 100 µM (inactive) | > 100 µM (inactive) | > 100 µM (inactive) | > 100 µM (inactive) | > 100 µM (inactive) | > 100 µM (inactive) | > 100 µM (inactive) | 
CCN(CC)CCNc1ccc([N+](=O)[O-])c2nc3ccc(OC)cc3c(N)c12 | 1.37 µM (inactive) | 1.27 | 0.811 µM (active) | 1.78 µM (inactive) | 1.77 µM (inactive) | 0.43 µM (active) | 0.301 µM (active) | 1.44 µM (inactive) | 1.86 µM (inactive) | 1.7 µM (inactive) | 0.238 µM (active) | 0.248 µM (active) | 1.57 µM (inactive) | 0.4 µM (active) | 1.5 µM (inactive) | 0.309 µM (active) | 1.24 µM (inactive) | 1.67 µM (inactive) | 
C1CNOCCCONCCCNOCCCONC1 | 93.1 µM (inactive) | > 100 | > 100 µM (inactive) | 30.1 µM (inactive) | 41.7 µM (inactive) | 37.5 µM (inactive) | > 100 µM (inactive) | 77.4 µM (inactive) | 62.2 µM (inactive) | 50.1 µM (inactive) | > 100 µM (inactive) | > 100 µM (inactive) | 31 µM (inactive) | > 100 µM (inactive) | 42.5 µM (inactive) | 67.6 µM (inactive) | 95.3 µM (inactive) | > 100 µM (inactive) | 
CN(C)c1ccc(/C=C2\N=C(NNc3ccccc3)NC2=O)cc1 | 21.5 µM (inactive) | 22 |  | 38.2 µM (inactive) | 15.6 µM (inactive) | 17.9 µM (inactive) | < 0.01 µM (active) | 17.7 µM (inactive) | 16 µM (inactive) | 30.3 µM (inactive) |  | < 0.01 µM (active) | 20.8 µM (inactive) | 15.6 µM (inactive) | 17.1 µM (inactive) | 18.8 µM (inactive) | 19.8 µM (inactive) | 27.7 µM (inactive) | 14 µM (inactive)
S=C(N/N=C\C(=N/NC(=S)N1CCCCC1)c1ccccc1)N1CCCCC1 | 2.01 µM (inactive) | 2.4 | 1.77 µM (inactive) | 1.91 µM (inactive) | 2.14 µM (inactive) | 2.81 µM (inactive) |  | 1.95 µM (inactive) | 1.74 µM (inactive) | 2.43 µM (inactive) | 5.68 µM (inactive) |  | 1.8 µM (inactive) | 2.03 µM (inactive) | 1.78 µM (inactive) | 1.62 µM (inactive) | 2.31 µM (inactive) | 2.89 µM (inactive) | 2.08 µM (inactive)
Cc1ccc(OCC2OC(n3cnc4c(Cl)nc(Nc5cc(Cl)cc(Cl)c5)nc43)CC2Oc2ccc(C)cc2)cc1 (centres undefined) | > 100 µM (inactive) | > 100 | > 100 µM (inactive) | > 100 µM (inactive) | > 100 µM (inactive) | > 100 µM (inactive) | > 100 µM (inactive) | > 100 µM (inactive) | > 100 µM (inactive) |  | > 100 µM (inactive) | > 100 µM (inactive) |  | > 100 µM (inactive) | > 100 µM (inactive) | > 100 µM (inactive) | > 100 µM (inactive) | > 100 µM (inactive) | > 100 µM (inactive)
COc1ccc(/C=C2/NC(=S)N=C2Cl)cc1 | > 100 µM (inactive) | > 100 | > 100 µM (inactive) | > 100 µM (inactive) | > 100 µM (inactive) | > 100 µM (inactive) | > 100 µM (inactive) | > 100 µM (inactive) | > 100 µM (inactive) | > 100 µM (inactive) | > 100 µM (inactive) | > 100 µM (inactive) | > 100 µM (inactive) | > 100 µM (inactive) | > 100 µM (inactive) | > 100 µM (inactive) | > 100 µM (inactive) | > 100 µM (inactive) | 
C/C=C(/C)C(=O)O[C@H](C[C@@H](C)[C@H]1CC(c2ccoc2)OC1=O)[C@@]1(C)C(=O)CCC2O[C@]21C (some centres undefined) | > 100 µM (inactive) | > 100 | > 100 µM (inactive) | > 100 µM (inactive) | > 100 µM (inactive) | > 100 µM (inactive) | > 100 µM (inactive) |  | > 100 µM (inactive) |  | > 100 µM (inactive) | > 100 µM (inactive) | > 100 µM (inactive) | > 100 µM (inactive) | > 100 µM (inactive) | > 100 µM (inactive) | > 100 µM (inactive) | > 100 µM (inactive) | > 100 µM (inactive)
Cc1cn(C2CC(SCCO)C(CO)O2)c(=O)[nH]c1=O (centres undefined) | > 100 µM (inactive) | > 100 |  | > 100 µM (inactive) | > 100 µM (inactive) | > 100 µM (inactive) | > 100 µM (inactive) | > 100 µM (inactive) | > 100 µM (inactive) | > 100 µM (inactive) | > 100 µM (inactive) | > 100 µM (inactive) |  | > 100 µM (inactive) | > 100 µM (inactive) | > 100 µM (inactive) | > 100 µM (inactive) | > 100 µM (inactive) | > 100 µM (inactive)
COc1ccc2c(c1OC)C(C(Cl)(Cl)Cl)N1CCc3cc4c(cc3C1=C2)OCO4 (centres undefined) | 9.31 µM (inactive) | 33.3 | 3.94 µM (inactive) | 11.5 µM (inactive) | 7.16 µM (inactive) | 28.1 µM (inactive) | 16 µM (inactive) | 13.1 µM (inactive) | 7.43 µM (inactive) |  |  | 6.71 µM (inactive) | 27 µM (inactive) | 5.45 µM (inactive) | 67.6 µM (inactive) | 13.9 µM (inactive) | 44.6 µM (inactive) | 15.4 µM (inactive) | 10.8 µM (inactive)
C=C[C@H]1CN2CC[C@H]1C[C@@H]2[C@@H](O)c1ccnc2ccccc12 [CINCHONINE] | > 100 µM (inactive) | > 100 | > 100 µM (inactive) | > 100 µM (inactive) | > 100 µM (inactive) | > 100 µM (inactive) | > 100 µM (inactive) | > 100 µM (inactive) | > 100 µM (inactive) | 89.9 µM (inactive) | 55.2 µM (inactive) |  | > 100 µM (inactive) | > 100 µM (inactive) | 63 µM (inactive) | > 100 µM (inactive) | > 100 µM (inactive) | > 100 µM (inactive) | 
Oc1cc(O)c2c(c1)O[C@H](c1cc(O)c(O)c(O)c1)[C@@H](O)C2 [GALLOCATECHIN] | 24.4 µM (inactive) | 40 | 19.1 µM (inactive) | > 100 µM (inactive) | > 100 µM (inactive) | 18.8 µM (inactive) | > 10 µM (inactive) | 18.3 µM (inactive) | 21.8 µM (inactive) | 17.5 µM (inactive) | 18 µM (inactive) | 19.5 µM (inactive) |  | 19.3 µM (inactive) | > 100 µM (inactive) | 17.5 µM (inactive) | 36.2 µM (inactive) | 21.1 µM (inactive) | > 10 µM (inactive)
